Data published in patent publication US20240252508A1, “Novel glucose uptake inhibitors for use in the treatment of cancer” (NOVELYEAST BV, priority 2021, published 2024).
Like-named read-outs stand apart in the source and are kept apart here.

What was measured:
tps1Δ cells [1] = test: Growth rescue of tps1Δ strain on glucose (growth curves, 2% galactose medium); format: cell-based, S. cerevisiae
In short: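 tps1Δ yeast pregrown in Complete Synthetic medium with 2% galactose, washed, resuspended to OD 0.1; compounds added 10 min before glucose. Growth followed as OD595 every 30 min at 30 °C in at least three technical replicates.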

tps1Δ cells [2] = test: Zero-trans glucose uptake in tps1Δ yeast cells; format: cell-based, S. cerevisiae; conditions: for Ki: Dixon plot analysis
Method: (§1) Zero-trans uptake of radioactively labeled [U-^14C]glucose, [U-^14C]fructose or [U-^14C]galactose by S. cerevisiae cells was determined in accordance with previous studies^44,66. Cells were grown on different carbon sources depending on the experiment. For measuring glucose uptake activity in the tps1Δ and tps1Δ hxtA strains (FIG. 1b,c), cells were grown on YP medium containing 3% glycerol (measurement of 10s). Typically, for compound characterization and kinetic studies in wild type and tps1Δ strains, cells were (pre)grown on Complete Synthetic medium supplemented with 2% galactose (measurement of 10s). In the experiments on the influence of hexokinase activity on the sugar uptake rate, the measurement duration was shortened to 5s and cells were always grown on YP medium containing 3% glycerol and 2% ethanol. After harvesting, cells were washed twice with ice-cold 25 mM MES-buffer pH 6, and resuspended in their respective medium without sugar to a final concentration of 45 mg (wet weight)/mL. The amount of added tracer was estimated to give a response close to at least 1000 counts per min in order to adequately counter background noise. Cells were first preincubated for 10 min at 30° C. with the compound to acclimate the cells to the temperature and to allow adequate interaction with the compound prior to uptake. Next, hexose sugar was mixed with the cell suspension, which was then incubated for 5 or 10 s, depending on the experiment, after which the cells were rapidly filtered over a glass microfiber filter (Whatman GF/C) and washed three times with ice-cold dH2O. The loaded filter was transferred to a scintillation vial containing 3 mL liquid scintillation cocktail (Ultima-Flo M, Perkin Elmer) and counted using the Hidex 300 SL. Three blank measurements per strain were typically included to account for background signal, for which the cells were first quenched before adding the radioactive label.

hexokinase = test: In vitro hexokinase activity in extracts of wild type cells; format: biochemical, S. cerevisiae; conditions: 50 μM WBC-A
Method: In vitro hexokinase activity was determined as described previously 43, s. As such, cells were first grown to exponential phase on complete Synthetic medium supplemented with 2% galactose. The cells were harvested and washed with ice-cold 25 mM MES buffer pH 6. Subsequently, cells were resuspended in lysis buffer (50 mM HEPES pH 7, 150 mM NaCl, 2.5 mM MgCl2, 5% glycerol and 1% Triton X-100) containing protease inhibitor after which the cells were mechanically lysed. After protein level determination, total protein concentration was diluted to 0.1 mg/mL in reaction buffer (50 mM HEPES pH 7, 150 mM NaCl, 2.5 mM MgCl2, 5% glycerol). For measuring activity, reaction buffer was supplemented with 0.8 mg/mL NADP^+ and 50 μg/mL Glu6P dehydrogenase. After temperature equilibration of the plate at 30° C., the reaction was started by adding both ATP and glucose to the reaction buffer. OD340 was measured using the Synergy H1 Hybrid reader and hexokinase activity was determined based on the linear increase of absorbance in the first 10-20s.

[3] = test system: HXK2 hxk1Δ glk1Δ, hxk2Δ hxk1Δ glk1Δ and hxk2Δ hxk1Δ GLK1 cells; test: Sugar uptake in yeast strains with and without hexokinase activity; format: cell-based, S. cerevisiae; conditions: for inhibition at 50 µM: Saccharomyces cerevisiae
Method: as §1

human GLUT4^V85M = biological target: T1, human GLUT4^V85M (Homo sapiens, UniProt P14672, V85M); test: Glucose uptake by GLUT4^V85M expressed in hxt^0 erg4Δ (EBY.VW4000) yeast; format: cell-based; conditions: 2.5 mM glucose
T1 construct: HA (C); expressed in transfected cells; host or cells: S. cerevisiae EBY.VW4000 (hxt0 erg4Δ), plasmid pFL38Kan-GLUT4^V85M (TEF1 promoter, low-copy)
T1 sequence (P14672 1-509 V85M): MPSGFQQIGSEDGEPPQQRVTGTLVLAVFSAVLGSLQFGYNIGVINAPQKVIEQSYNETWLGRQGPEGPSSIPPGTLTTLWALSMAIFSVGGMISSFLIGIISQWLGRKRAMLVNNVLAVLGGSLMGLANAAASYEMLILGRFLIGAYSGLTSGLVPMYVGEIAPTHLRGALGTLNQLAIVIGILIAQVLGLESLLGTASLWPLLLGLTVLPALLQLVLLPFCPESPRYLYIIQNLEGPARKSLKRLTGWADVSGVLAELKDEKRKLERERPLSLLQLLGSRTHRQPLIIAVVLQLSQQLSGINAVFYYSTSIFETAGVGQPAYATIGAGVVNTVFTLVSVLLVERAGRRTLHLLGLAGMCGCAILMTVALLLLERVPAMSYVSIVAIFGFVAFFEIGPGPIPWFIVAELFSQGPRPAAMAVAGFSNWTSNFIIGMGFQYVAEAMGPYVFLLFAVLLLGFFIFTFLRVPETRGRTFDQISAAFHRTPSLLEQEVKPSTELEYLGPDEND
Text: To assess whether WBC-A could inhibit glucose transport activity of the GLUT carriers, we expressed human GLUT1^V69M and GLUT4^V85M in a hxt^0 gal2Δ (RE700A) and hxt^0 erg4Δ (EBY.VW4000) strain, respectively. These strains are both deficient in glucose uptake due to absence of all active glucose transporters. For functional GLUT expression in yeast, specific mutations had to be introduced in both sequences, whereas for GLUT4, an additional ERG4 gene deletion was required^64,65,66.
Zero-trans uptake of radioactively labeled [U-^14C]glucose, [U-^14C]fructose or [U-^14C]galactose by S. cerevisiae cells was determined in accordance with previous studies^44,66. Cells were grown on different carbon sources depending on the experiment. For measuring glucose uptake activity in the tps1Δ and tps1Δ hxtA strains (FIG. 1b,c), cells were grown on YP medium containing 3% glycerol (measurement of 10s). Typically, for compound characterization and kinetic studies in wild type and tps1Δ strains, cells were (pre)grown on Complete Synthetic medium supplemented with 2% galactose (measurement of 10s). […] The loaded filter was transferred to a scintillation vial containing 3 mL liquid scintillation cocktail (Ultima-Flo M, Perkin Elmer) and counted using the Hidex 300 SL. […]

Cc1nc(Sc2nnc3n2CCCCC3)c2c(-c3cccs3)csc2n1 [WBC-A]
Rescue of tps1Δ growth on galactose in the presence of 5 mM glucose (tps1Δ cells [1]; 100 μM WBC-A, 5 mM glucose): rescued growth | Rescue of tps1Δ growth in the presence of 7.5 mM glucose (tps1Δ cells [1]; 100 μM WBC-A, 7.5 mM glucose): not able to restore growth | Growth of tps1Δ cells on galactose in the absence of glucose (tps1Δ cells [1]; 100 μM WBC-A, 2% galactose): significant growth delay | Minimal rescue concentration for growth of tps1Δ cells on 2.5 mM glucose (tps1Δ cells [1]; 2.5 mM glucose): 25 µM | Ki (tps1Δ cells [2]): 8.35 µM | Ki (tps1Δ cells [2]; printed K′, read-out: K′i, glucose uptake, tps1Δ cells): 35.4 µM | Type of inhibition of glucose uptake, tps1Δ cells (tps1Δ cells [2]; Lineweaver-Burk plot analysis): mixed type | Effect on in vitro hexokinase activity (hexokinase): No significant effect | Fructose uptake at tracer concentration, hxk2Δ hxk1Δ GLK1 cells ([3]; 50 μM WBC-A): little inhibition of fructose uptake | Glucose uptake at tracer concentration, hxk2Δ hxk1Δ GLK1 cells ([3]; 50 μM WBC-A): strong inhibition of glucose uptake | Inhibition of glucose uptake rate, hxk1Δ hxk2Δ glk1Δ strain ([3]; 1 mM glucose): little further inhibition | Inhibition of glucose uptake rate, strain expressing active Hxk2 ([3]; 1 mM glucose, HXK2 hxk1Δ glk1Δ): strong reduction in glucose uptake rate | inhibition at 50 µM ([3]; read-out: Inhibition of fructose transport, strain expressing only GLK1): ~30% | inhibition at 50 µM ([3]; read-out: Inhibition of fructose transport, strain only expressing HXK2): > 75% | IC50 (human GLUT4^V85M): 20.9 µM
